Test results published in publication PMC4055159, “Application of Molecular Modeling to Urokinase Inhibitors Development” (BioMed Research International, 2014).
Where two headings read alike, the source gives them in different places.

Tests used:
[1] = molecular target: urokinase (uPA) (Homo sapiens, UniProt P00749); assay: urokinase inhibition testing in vitro, chromogenic substrate S-2444, optical density at 405 nm; format: biochemical; settings: read-out: Experiment, uPA inhibition activity (IC50)
Procedure: After selection of the most promising candidates for new urokinase inhibitors, we tested their inhibition activities in vitro. The experiments were carried out on the system with the urokinase specimen, the tested ligand, and the special substrate—a synthetic Pyro-Glu-Gly-Arg-pNA peptide (S-2444). Urokinase decomposes the substrate with production of the chromogenic product. When the inhibitor binds to the urokinase active site, this production is slowed down. The higher the inhibition activity of the ligand, the slower the working of urokinase and the slower the accumulation of chromogenic product. Thus, the inhibitory activity can be measured by the rate of optical density change at the 405 nm wavelength. […] Error of the method for IC50 measurement in micromole range is about […].
Experimental tests were performed as indicated in paragraph 3.5 of “Methods.” Urokinase proteolytic activity in the presence of inhibitor (and also in absence of inhibitor, labeled “control” in Figure 4) was determined by releasing the paranitroanilide by means of measuring of absorption with a wave length of 405 nm each minute at 30°C. Figure 4 is a diagram of relationship between optical density and time. The angle of curve describes the reaction rate: the lower it is (compared with “control”, which corresponds to urokinase without inhibitors), the better inhibitor works.

[2] = molecular target: uPA; set-up: method as in PMID 8495419; settings: cited from earlier work
[3] = molecular target: human uPA; set-up: method as in PMID 15582418, PMID 12113833, PMID 11755349, PMID 15149680, PMID 17447747; settings: read-out: K i against human uPA; cited from earlier work
[4] = set-up: method as in PMID 19200050; settings: cited from earlier work

With N=C(N)Sc1ccc(Br)cn1 [U007R] the IC50 ([1]; synthesized compounds, Table 8) was > 500 µM.
For N=C(N)c1cc2c(I)cccc2s1 [B428], the Ki [2] is listed as 0.53 µM.
For N=C(N)Sc1ccccc1 [U002R], the IC50 ([1]; synthesized compounds, Table 8) was > 500 µM.
N=C(N)Nc1nsc2ccc(Br)cc12 [U026R, (5-bromo-1,2-benzisothiazol-3-yl) guanidine] showed an IC50 ([1]; synthesized compounds, Table 8) of 4 to 20 µM.
In the case of Nc1nc2cc(F)ccc2[nH]1 [U020R], the IC50 ([1]; synthesized compounds, Table 8) is reported as 500 µM.
In the case of Nc1nc(-c2ccc3ccccc3c2)cs1 [U009T], the IC50 ([1]; synthesized compounds, Table 8) is reported as > 500 µM.
In the case of Cc1[nH]c2ccc(Oc3ccccc3)cc2c1CCN [TRY-0074], the IC50 ([1]; ordered compounds, Table 7) is reported as 260 µM.
Work on Nc1ncc(-c2ccc(F)cc2)[nH]1 [AIM-0027] yielded an IC50 ([1]; ordered compounds, Table S2) of 500 µM.
With Nc1nc2cc(NS(=O)(=O)c3ccccc3)ccc2[nH]1 [U015R] the IC50 ([1]; synthesized compounds, Table 8) was > 500 µM.
In the case of COc1ccc2nc(N)[nH]c2c1 [U019R], the IC50 ([1]; synthesized compounds, Table 8) is reported as 500 µM.
For NC1=NCC(COc2c(Cl)cccc2Cl)O1 (centres unmarked) [U012T], the IC50 ([1]; synthesized compounds, Table 8) was > 500 µM.
For Nc1nc2cc([N+](=O)[O-])ccc2[nH]1 [U014aR], the IC50 ([1]; synthesized compounds, Table 8) was > 500 µM.
For N=C(N)Nc1nsc2ccccc12 [U024R, 1,2-benzisothiazol-3-yl-guanidine], the IC50 ([1]; synthesized compounds, Table 8) was 33 µM.
In the case of N=C(N)Sc1ccccn1 [U001R], the IC50 ([1]; synthesized compounds, Table 8) is reported as > 500 µM.
Work on CC(=O)Nc1ccc2[nH]c(N)nc2c1 [U017R] yielded an IC50 ([1]; synthesized compounds, Table 8) of 200 µM.
In the case of CCOC(=O)N1CCN(C(=O)C(Cc2cccc(C(=N)N)c2)NS(=O)(=O)c2c(C(C)C)cc(C(C)C)cc2C(C)C)CC1 (centres unmarked) [WX-UK1], the Ki [3] is listed as 0.6 µM and the oral absorption [4] is listed as “not absorbed orally”.
Compound Nc1ccc2[nH]c(N)nc2c1 [U014R] has an IC50 ([1]; synthesized compounds, Table 8) of 200 µM.
For Cc1cccc(C)c1OCC1CN=C(N)O1 (centres unmarked) [U013T], the IC50 ([1]; synthesized compounds, Table 8) was > 500 µM.
For NC1=NCC(COc2ccccc2)O1 (centres unmarked) [U006R], the IC50 ([1]; synthesized compounds, Table 8) was > 500 µM.
Compound Nc1nc(-c2ccccc2)c[nH]1 [U005r] has an IC50 ([1]; synthesized compounds, Table 8) of 500 µM.
N=C(N)Nc1n[nH]c2ccccc12 [U021R] gave an IC50 ([1]; synthesized compounds, Table 8) of 500 µM.
For Nc1cc2ccccc2cn1 [U003P], the IC50 ([1]; synthesized compounds, Table 8) was > 500 µM.
